Measured values as given in patent US20230271770A1, “Anti-Viral Pharmaceutical Formulations Administered Via Devices for Lung Targeted Delivery” (priority 2020, published 2023).

Tests used:
[1] = design: species or system mice; conditions: mouse, in vivo, 10 min
Procedure: Mice can breathe the aerosol of drug products. A breathing tank is used for mice to breathe the aerosol of the drug product, such as HCQ. The drug product is administered through the specially designed stainless steel breathing tank 1800, for example as shown in FIG. 18.
The exposure tank size is designed such that the total breathing volume of all eight mice during a 10-minute breathing treatment (1.8 L) is less than 10% of the tank size (21.5 L). The internal wall of the tank is electrically polished to minimize its adsorption of the study drug. Eight mice were mounted to the tank with four mice on each side using small animal restraints. At the start of each treatment session, an effective amount of the drug was administered into pre-cleaned tank. A stirring fan installed inside the tank was set to promote circulation of the pharmaceutical agent. Specifically, the fan was set at 400 RPM in this study and turned on before the pharmaceutical agent was administered. Thirty seconds after the last spray (t=0 minute), eight mice were mounted to the inhalation chamber to breathe the air from inside the breathing tank for 10 minutes, and then were taken off the breathing tank. Samples from the mice were taken, starting immediately after removal from the tank, to perform pharmacokinetic studies. […]

[2] = Cascade Impactor (Andersen) test, MDI actuator for stand-alone (handheld) use; assay type: physicochemical
From the text: The particle size of an inhalation drug may be measured by an instrument called a Cascade Impactor, which consists of multiple discs. The size of the discs is graduated to properly determine the size of the particulate matter at various stages of the Cascade Impactor, which each represent the drug delivery to different portions of the entire respiratory tract. The Cascade Impactor collects samples of the drug in a graduated manner on each disc such that the average particle size of the collected drugs can be measured for each stage.
As discussed above, the particle size of an inhalation drug, namely the API, can be measured by a Cascade Impactor (Westech Instruments), which consists of multiple stages (0-7). The particle sizes at each stage are listed in Table 8, which represents the drug delivery to different portions of the entire respiratory tract using a stand-alone MDI actuator, for example actuator 500, discussed above.
As described above, the disclosed MDI actuator nozzles may include an inner diameter that is optimized to dispense fine API particle sizes, such as API particles having a diameter of about 1.1 μm or less. Table 12, below, outlines a study of the amount percentage (%) of fine API particles having particle diameters of less than about 1.1 μm versus nozzle inner diameter size of the disclosed MDI actuators, for example MDI actuator 500. […] The general components of MDI actuator 500 was utilized, but different nozzle inner diameter sizes were tested in this study. In particular, 3 different MDI actuators were tested: (1) MDI actuator having 0.42 mm nozzle inner diameter (“MDI Actuator A”), (2) MDI actuator having 0.28 mm nozzle inner diameter (“MDI Actuator B”), and (3) MDI actuator having 0.20 mm nozzle inner diameter (“MDI Actuator C”).

[3] = HCQ particles typically inhaled to treat asthma; cited from earlier work
[4] = In-line Cascade Impactor (Andersen) evaluation, MDI actuator through elbow connection and ventilator tubing; assay type: physicochemical; design: Delivered <1.1 mcm / Delivered <4.7 mcm: unit not given here; conditions: 5% EtOH; for Delivered <4.7 mcm: Plate 3~5
Procedure: An example of a ventilator device, for example ventilator device 1700A, was tested and compared to a self-administrable, handheld MDI to determine the target site delivery efficiency in the ventilator circuit as compared to the MDI delivery efficiency without the ventilator circuit (e.g. no elbow connector or ventilator tubing).
Prime HCQ valve by discharging a predetermined number of actuations to waste. Discharge 10 actuations with actuator H004B-a into the cascade impaction sampling apparatus through an elbow connection w/inner channel and an in-line tubing (55 cm long).
Prime HCQ valve by discharging a predetermined number of actuations to waste. Discharge 10 actuations with actuator H004B-c into the cascade impaction sampling apparatus through an elbow connection with an inner channel and an in-line tubing (55 cm long).
Prime HCQ valve by discharging a predetermined number of actuations to waste. […]

[5] = human, in vivo, po; cited from earlier work

## CCN(CCO)CCCC(C)Nc1ccnc2cc(Cl)ccc12 (stereo not drawn) [HCQ, hydroxychloroquine]
[1]
  appearance of mice during and after treatment: appeared healthy, with no signs of distress
[2]; Actuator A (nozzle 0.42 mm)
  EPM (6-filter; P6-F, <1.1 μm for Alveoli), Compared to strength (delivery rate): 21.6%
[2]; Actuator B (nozzle 0.28 mm)
  EPM (6-filter; P6-F, <1.1 μm for Alveoli), Compared to strength (delivery rate): 39.7%
[2]; Actuator C (nozzle 0.20 mm)
  EPM (6-filter; P6-F, <1.1 μm for Alveoli), Compared to strength (delivery rate): about 53.9%
[2]; Alveoli, <1.1 mcm, actuator O-0.20, 5% EtOH, 200 mcg
  Delivery Rate: 44.5%
[2]; Alveoli, <1.1 mcm, actuator O-0.20, 5% EtOH, 200 mcg (Table 21)
  Delivery Rate: 44.5%
[2]; Alveoli, actuator O-0.20, 5% EtOH, 200 mcg
  Delivered <1.1 mcm: 89
[2]; Alveoli, actuator O-0.20, 5% EtOH, 200 mcg (Table 21)
  Delivered <1.1 mcm: 89
[2]; Plate 3~5, <4.7 mcm, actuator O-0.20, 5% EtOH, 200 mcg
  Delivery Rate: 50.7%
[2]; Plate 3~5, actuator O-0.20, 5% EtOH, 200 mcg
  Delivered <4.7 mcm: 101.3
[3]
  mean HCQ particle size: 3.2 μm
[4]; Alveoli, <1.1 mcm, in-Linc Tube (15 cm), HCQB-c, connection w/o inner channel, 200 mcg (#6)
  Delivery Rate: 34.2%
[4]; Alveoli, <1.1 mcm, in-Line Tube (15 cm), HCQB-a, connection w/o inner channel, 200 mcg
  Delivery Rate: 32.2%
[4]; Alveoli, <1.1 mcm, in-Line Tube (15 cm), HCQB-b, connection w/o inner channel, 200 mcg
  Delivery Rate: 31.3%
[4]; Alveoli, <1.1 mcm, in-Line Tube (15 cm), HCQB-c, connection w/o inner channel, 200 mcg (#4)
  Delivery Rate: 43.3%
[4]; Alveoli, <1.1 mcm, in-Line Tube (15 cm), HCQB-d, connection w/o inner channel, Ave, 200 mcg
  Delivery Rate: 36.9%
[4]; Alveoli, <1.1 mcm, in-Line Tube (15 cm), HCQB-f, connection w/o inner channel, 200 mcg
  Delivery Rate: 23.2%
[4]; Alveoli, <1.1 mcm, in-Line Tube (15 cm), HCQB-g, connection w/inner channel, 200 mcg
  Delivery Rate: 34.0%
[4]; Alveoli, <1.1 mcm, in-Line Tube (15 cm), HCQB-g, connection w/o inner channel, 200 mcg
  Delivery Rate: 31.5%
[4]; Alveoli, <1.1 mcm, in-Line Tube (15 cm), HCQB-h, connection w/ inner channel, 200 mcg
  Delivery Rate: 35.9%
[4]; Alveoli, <1.1 mcm, in-Line Tube (15 cm), HCQB-h, connection w/o inner channel, 200 mcg
  Delivery Rate: 31.1%
[4]; Alveoli, <1.1 mcm, in-Line Tube (15 cm), HCQB-i, connection w/inner channel, 200 mcg
  Delivery Rate: 27.5%
[4]; Alveoli, <1.1 mcm, in-Line Tube (15 cm), HCQB-i, connection w/o inner channel, 200 mcg
  Delivery Rate: 37.9%
[4]; Alveoli, <1.1 mcm, in-Line Tube (15 cm), HCQB-j, connection w/o inner channel, 200 mcg
  Delivery Rate: 29.1%
[4]; Alveoli, <1.1 mcm, in-Line Tube (55 cm), HCQB-a, connection w/inner channel, 200 mcg
  Delivery Rate: 19.3%
[4]; Alveoli, <1.1 mcm, in-Line Tube (55 cm), HCQB-b, connection w/inner channel, 200 mcg
  Delivery Rate: 26.9%
[4]; Alveoli, <1.1 mcm, in-Line Tube (55 cm), HCQB-c, connection w/inner channel, Ave, 200 mcg
  Delivery Rate: 37.9%
[4]; Alveoli, <1.1 mcm, in-Line Tube (55 cm), HCQB-d, connection w/inner channel, 200 mcg
  Delivery Rate: 26.4%
[4]; Alveoli, <1.1 mcm, in-Line Tube (55 cm), HCQB-f, connection w/inner channel, Ave, 200 mcg
  Delivery Rate: 34.7%
[4]; Alveoli, <1.1 mcm, in-Line Tube (55 cm), HCQB-j, connection w/ inner channel, 200 mcg
  Delivery Rate: 30.3%
[4]; Alveoli, in-Linc Tube (15 cm), HCQB-c, connection w/o inner channel, 200 mcg (#6)
  Delivered <1.1 mcm: 68.4
[4]; Alveoli, in-Line Tube (15 cm), HCQB-a, connection w/o inner channel, 200 mcg
  Delivered <1.1 mcm: 64.4
[4]; Alveoli, in-Line Tube (15 cm), HCQB-b, connection w/o inner channel, 200 mcg
  Delivered <1.1 mcm: 62.6
[4]; Alveoli, in-Line Tube (15 cm), HCQB-c, connection w/o inner channel, 200 mcg (#4)
  Delivered <1.1 mcm: 86.6
[4]; Alveoli, in-Line Tube (15 cm), HCQB-d, connection w/o inner channel, Ave, 200 mcg
  Delivered <1.1 mcm: 73.8
[4]; Alveoli, in-Line Tube (15 cm), HCQB-f, connection w/o inner channel, 200 mcg
  Delivered <1.1 mcm: 46.3
[4]; Alveoli, in-Line Tube (15 cm), HCQB-g, connection w/inner channel, 200 mcg
  Delivered <1.1 mcm: 68.0
[4]; Alveoli, in-Line Tube (15 cm), HCQB-g, connection w/o inner channel, 200 mcg
  Delivered <1.1 mcm: 63.0
[4]; Alveoli, in-Line Tube (15 cm), HCQB-h, connection w/ inner channel, 200 mcg
  Delivered <1.1 mcm: 71.7
[4]; Alveoli, in-Line Tube (15 cm), HCQB-h, connection w/o inner channel, 200 mcg
  Delivered <1.1 mcm: 62.1
[4]; Alveoli, in-Line Tube (15 cm), HCQB-i, connection w/inner channel, 200 mcg
  Delivered <1.1 mcm: 55.0
[4]; Alveoli, in-Line Tube (15 cm), HCQB-i, connection w/o inner channel, 200 mcg
  Delivered <1.1 mcm: 75.7
[4]; Alveoli, in-Line Tube (15 cm), HCQB-j, connection w/o inner channel, 200 mcg
  Delivered <1.1 mcm: 58.1
[4]; Alveoli, in-Line Tube (55 cm), HCQB-a, connection w/inner channel, 200 mcg
  Delivered <1.1 mcm: 38.5
[4]; Alveoli, in-Line Tube (55 cm), HCQB-b, connection w/inner channel, 200 mcg
  Delivered <1.1 mcm: 53.8
[4]; Alveoli, in-Line Tube (55 cm), HCQB-c, connection w/inner channel, Ave, 200 mcg
  Delivered <1.1 mcm: 75.8
[4]; Alveoli, in-Line Tube (55 cm), HCQB-d, connection w/inner channel, 200 mcg
  Delivered <1.1 mcm: 52.8
[4]; Alveoli, in-Line Tube (55 cm), HCQB-f, connection w/inner channel, Ave, 200 mcg
  Delivered <1.1 mcm: 69.4
[4]; Alveoli, in-Line Tube (55 cm), HCQB-j, connection w/ inner channel, 200 mcg
  Delivered <1.1 mcm: 60.5
[4]; Plate 3~5, <4.7 mcm, in-Line Tube (15 cm), HCQB-g, connection w/inner channel, 200 mcg
  Delivery Rate: 30.5%
[4]; Plate 3~5, <4.7 mcm, in-Line Tube (15 cm), HCQB-h, connection w/inner channel, 200 mcg
  Delivery Rate: 25.8%
[4]; Plate 3~5, <4.7 mcm, in-Line Tube (15 cm), HCQB-i, connection w/inner channel, 200 mcg
  Delivery Rate: 22.8%
[4]; Plate 3~5, <4.7 mcm, in-Line Tube (55 cm), HCQB-a, connection w/inner channel, 200 mcg
  Delivery Rate: 13.3%
[4]; Plate 3~5, <4.7 mcm, in-Line Tube (55 cm), HCQB-b, connection w/inner channel, 200 mcg
  Delivery Rate: 21.3%
[4]; Plate 3~5, <4.7 mcm, in-Line Tube (55 cm), HCQB-c, connection w/inner channel, 200 mcg
  Delivery Rate: 29.0%
[4]; Plate 3~5, <4.7 mcm, in-Line Tube (55 cm), HCQB-d, connection w/inner channel, 200 mcg
  Delivery Rate: 23.3%
[4]; Plate 3~5, <4.7 mcm, in-Line Tube (55 cm), HCQB-e, connection w/inner channel, 200 mcg
  Delivery Rate: 29.0%
[4]; Plate 3~5, <4.7 mcm, in-Line Tube (55 cm), HCQB-f, connection w/inner channel, 200 mcg
  Delivery Rate: 28.3%
[4]; Plate 3~5, <4.7 mcm, in-Line Tube (55 cm), HCQB-j, connection w/inner channel, 200 mcg
  Delivery Rate: 20.0%
[4]; in-Line Tube (15 cm), HCQB-g, connection w/inner channel, 200 mcg
  Delivered <4.7 mcm: 60.9
[4]; in-Line Tube (15 cm), HCQB-h, connection w/inner channel, 200 mcg
  Delivered <4.7 mcm: 51.6
[4]; in-Line Tube (15 cm), HCQB-i, connection w/inner channel, 200 mcg
  Delivered <4.7 mcm: 45.5
[4]; in-Line Tube (55 cm), HCQB-a, connection w/inner channel, 200 mcg
  Delivered <4.7 mcm: 26.5
[4]; in-Line Tube (55 cm), HCQB-b, connection w/inner channel, 200 mcg
  Delivered <4.7 mcm: 42.6
[4]; in-Line Tube (55 cm), HCQB-c, connection w/inner channel, 200 mcg
  Delivered <4.7 mcm: 57.9
[4]; in-Line Tube (55 cm), HCQB-d, connection w/inner channel, 200 mcg
  Delivered <4.7 mcm: 46.6
[4]; in-Line Tube (55 cm), HCQB-e, connection w/inner channel, 200 mcg
  Delivered <4.7 mcm: 57.9
[4]; in-Line Tube (55 cm), HCQB-f, connection w/inner channel, 200 mcg
  Delivered <4.7 mcm: 56.5
[4]; in-Line Tube (55 cm), HCQB-j, connection w/inner channel, 200 mcg
  Delivered <4.7 mcm: 39.9
[5]
  BA: 74%
  share of tablet dose distributed to red blood cells or other protein in blood: approximately 0.25%
  share of tablet dose not absorbed or initially metabolized in liver: approximately 26%
